These results are taken from paper PMC10388311, “Innovative Strategy toward Mutant CFTR Rescue in Cystic Fibrosis: Design and Synthesis of Thiadiazole Inhibitors of the E3 Ligase RNF5” (Journal of Medicinal Chemistry, 2023).

The solubility is the dissolved amount per volume that the medium holds.

“Also recorded” adds a separate entry of the source.

The target in data set [1] is T1, F508del-CFTR in CFBE41o– cells (Homo sapiens, UniProt Q99942). On the set-up: method as in PMID 29754957. To be noted: cited from earlier work.
For data set [2], the system named is ATG4B-mediated basal autophagy in F508del-CFTR-expressing CFBE41o– cells. Briefly: Labeling of autophagic vacuoles with monodansylcadaverine (MDC). The data set is classed as cell-based, human. To be noted: test compounds 5 μM 24 h; torin-1 20 nM and SAR-405 2 μM in the last 3 h. The source says:
To further support our hypothesis that CFTR rescue following treatment with test compounds was indeed due to RNF5 inhibition, we considered additional biological processes known to be regulated by RNF5 ligase activity. To this aim, we focused our attention on ATG4B, a known regulator of basal autophagy, whose degradation is mediated by RNF5 activity.[54]In vivo ubiquitination experiments previously confirmed that inh-2 inhibits ATG4B degradation, thus increasing the basal level of autophagy.[40] […] We thus evaluated the effect of inh-2 analogues on induction of the autophagy pathway. To this aim, we monitored the formation of autophagic vacuoles in F508del-CFTR-expressing CFBE41o^– cells (Figure 8) by using the autolysosome marker monodansylcadaverine (MDC). MDC accumulates inside autophagosomes. After fusion of autophagosomes with lysosomes, MDC fluorescence increases due to the acidic environment.[55] Therefore, F508del-CFTR-expressing CFBE41o^– cells were treated for 24 h with test compounds (5 μM), VX-809 (1 μM), or DMSO alone (vehicle). In the last 3 h of incubation, we added torin-1 (20 nM), a known autophagy inducer, and SAR-405 (2 μM), a potent inhibitor of the autophagic pathway. The cells were then loaded with MDC and evaluated by high-content confocal imaging to detect signal spots (corresponding to autophagic vacuoles) in each cell.
CFBE41o^– cells stably expressing F508del-CFTR and the HS-YFP were plated (50,000 cells/well) on good-quality clear-bottom 96-well black microplates suitable for high-content imaging. After 24 h, cells were treated with test compounds or DMSO (as the negative control). […] After 24 h, cells were incubated with 50 μM MDC (Sigma-Aldrich) in PBS at 37 °C for 10 min.[62] After incubation, cells were washed three times with PBS and immediately analyzed. High-content imaging and data analysis were performed using the Opera Phenix (PerkinElmer) high-content screening system. Wells were imaged in confocal mode using a 40× water-immersion objective. The MDC signal was laser-excited at 405 nm, and the emission wavelengths were collected between 435 and 550 nm. Data analysis of MDC spot number was performed using the Harmony software (ver 4.5) of the Opera Phenix high-content system. Data are expressed as means ± SEM, n = 3 independent experiments. Statistical significance was tested by parametric ANOVA followed by the Dunnet multiple comparisons test (all groups against the control group).

Data set [3] in a line: Solubility and aggregation in PBS buffer by NMR (SPAM filter, 1H 1D and WaterLOGSY). Particulars: PBS pH 7.5, 1 μM ZnCl2, 1 mM DTT, 10% D2O, 1% DMSO-d6; for solubility: PBS buffer, aqueous buffer, kinetic from dmso stock, theoretical concentration 20 μM, read-out: solubility in PBS buffer by NMR, 20 μM; for aggregation in PBS buffer by NMR: WaterLOGSY; for solubility at 50 µM: theoretical concentration 50 μM; for solubility at 100 µM: theoretical concentration 100 μM. It counts as physicochemical. The source says: Under these circumstances, it was decided to explore the solubility of all the synthetized compounds, regardless of their biological activities, to find a suitable candidate for the validation of our working hypothesis, i.e., that the compounds exert their activities by directly binding to RNF5. For that, we first calculated the predicted octanol/water partition coefficient (log Po/w) and the predicted aqueous solubility (log S) of all the analogues by QikProp (Schrödinger Release 2022-1: QikProp, Schrödinger, LLC, New York, NY, 2021, Table S1). […] To shrink down the number of compounds for solubility experiments, just the ones that had −2.0 < log Po/w < 6 and −6.5 < log S <0.5 values were selected. Among them, the PBS solubility was determined for five representative analogues: (i) 12 and 29 bearing different substituents on the benzyl group A; (ii) 34 and 40 showing the replacement of rings B and C with pyridine-4-yl moieties; (iii) 42 in which the N-phenylbenzamidine portion was replaced with a pyridine-2-yl moiety (Table 1).
All the NMR experiments were recorded at 298 K using a 5 mm CryoProbe QCI ^1H/^19F–^13C/^15N–D quadruple resonance, a shielded z-gradient coil, and an automatic sample changer SampleJet NMR system with temperature control. The solubility of the compounds were evaluated by ^1H 1D experiments and aggregation by WaterLOGSY, testing the compounds in buffer PBS pH 7,5, 1 μM ZnCl2, 1 mM DTT, 10% D2O (for the lock signal), and 1% DMSO-d6 at the theoretical concentrations of 20, 50, and 100 μM in the presence of 200 μM 4-trifluoromethyl benzoic acid (internal reference). For all samples, a 1D ^1H NMR experiment was recorded, the water suppression was obtained using the standard NOESY (nuclear Overhauser effect spectroscopy) preset Bruker pulse sequence, with 64k data points, a spectral width (sw) of 30 ppm, 64 scans, acquisition time (aq) of 1.835 s, a relaxation delay (d1) of 4 s, and a mixing time of 10 ms. […] The data were multiplied by an exponential window function with 1 Hz line broadening prior to Fourier transformation. For NMR binding experiments, the compounds were tested at 50 μM in buffer PBS pH 7.5, 1 μM ZnCl2, 1 mM DTT, 10% D2O (for the lock signal), and 1% DMSO-d6 in the absence and in the presence of 3 μM RNF5. WaterLOGSY experiments were recorded with the same parameters used in solubility assays, but with a higher number of scans (512); STD experiments were recorded with 128 scans, with two on (0.7 and 1 ppm) and one off (−50 ppm) resonance spectra, a Gaussian-shaped train pulse of 50 ms each was employed, with a total saturation time of the protein envelope of 5, 3, 2, 1.5, 1, or 0.5 s. A T1ρ filter of 2 ms was employed in STD experiments to eliminate the background signals from the protein. The STD spectrum was obtained by subtraction of the on-resonance spectrum from the off-resonance spectrum. Subtraction was performed by phase cycling to minimize artifacts arising from magnet and temperature instabilities.

Data set [4] addresses T1, F508del-CFTR in CFBE41o– cells. Briefly: HS-YFP microfluorimetric assay of F508del-CFTR rescue (corrector activity). The data set is classed as cell-based. To be noted: CFBE41o– cells co-expressing F508del-CFTR and HS-YFP, 24 h treatment, Figure 5. Summed up:
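CFBE41o– cells stably co-expressing F508del-CFTR and HS-YFP were treated with compounds 24 h after seeding; VX-809 (1 μM) served as positive control. F508del-CFTR was stimulated with forskolin (20 μM) plus VX-770 (1 μM) for 25 min before iodide injection. I– influx rate was taken as initial slope (dF/dt) from an exponential fit of YFP quenching.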

The subject of another data set is CFBE41o– cells. Briefly: Apoptosis assay (Hoechst 33342 / propidium iodide, high-content imaging). It counts as cell-based, human. To be noted: 24 h, 100 μM. On the procedure: We performed a preliminary evaluation of the effect of chronic treatment with selected analogues on the proliferation and apoptosis of CFBE41o^– cells (Figure 7). Indeed, RNF5 can modulate cell motility and proliferation by regulating paxillin ubiquitylation and thus its degradation.[53] For the proliferation assay, CFBE41o^– cells stably co-expressing F508del-CFTR and the HS-YFP were treated with test compounds (5 μM), VX-809 (1 μM), or vehicle alone (DMSO) for 48 h. Cell proliferation was then monitored by measuring the area covered by the cells based on the YFP signal. For the apoptosis assay, 24 h after plating, CFBE41o^– cells stably expressing F508del-CFTR were treated with test compounds (5, 20, and 100 μM), VX-809 (1 μM), MG132 (50 μM), or vehicle alone (DMSO) for 24 h. Cell nuclei were then counterstained with Hoechst 33342 and propidium iodide to visualize the total and apoptotic cell count, respectively, and imaged by using an Opera Phenix high-content screening system.
CFBE41o^– cells stably expressing F508del-CFTR and the HS-YFP were plated at a low density (5000 cell/well) on 96-well plates suitable for high-content imaging. […] Cell proliferation was monitored (by exploiting the YFP signal to determine the area covered by cells) for 48 h using the Opera Phenix (PerkinElmer) high-content screening system. […] Data are expressed as means ± SEM, n = 6. […]

T1 sequence (Q99942 2-180): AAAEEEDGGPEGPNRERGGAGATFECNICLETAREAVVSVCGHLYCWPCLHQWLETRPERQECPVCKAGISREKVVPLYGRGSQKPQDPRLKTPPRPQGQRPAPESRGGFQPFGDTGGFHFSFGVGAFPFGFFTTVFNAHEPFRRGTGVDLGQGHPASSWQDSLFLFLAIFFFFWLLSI
T1 sequence (P13569 with tags, fused parts or gaps DEL508-508 partner): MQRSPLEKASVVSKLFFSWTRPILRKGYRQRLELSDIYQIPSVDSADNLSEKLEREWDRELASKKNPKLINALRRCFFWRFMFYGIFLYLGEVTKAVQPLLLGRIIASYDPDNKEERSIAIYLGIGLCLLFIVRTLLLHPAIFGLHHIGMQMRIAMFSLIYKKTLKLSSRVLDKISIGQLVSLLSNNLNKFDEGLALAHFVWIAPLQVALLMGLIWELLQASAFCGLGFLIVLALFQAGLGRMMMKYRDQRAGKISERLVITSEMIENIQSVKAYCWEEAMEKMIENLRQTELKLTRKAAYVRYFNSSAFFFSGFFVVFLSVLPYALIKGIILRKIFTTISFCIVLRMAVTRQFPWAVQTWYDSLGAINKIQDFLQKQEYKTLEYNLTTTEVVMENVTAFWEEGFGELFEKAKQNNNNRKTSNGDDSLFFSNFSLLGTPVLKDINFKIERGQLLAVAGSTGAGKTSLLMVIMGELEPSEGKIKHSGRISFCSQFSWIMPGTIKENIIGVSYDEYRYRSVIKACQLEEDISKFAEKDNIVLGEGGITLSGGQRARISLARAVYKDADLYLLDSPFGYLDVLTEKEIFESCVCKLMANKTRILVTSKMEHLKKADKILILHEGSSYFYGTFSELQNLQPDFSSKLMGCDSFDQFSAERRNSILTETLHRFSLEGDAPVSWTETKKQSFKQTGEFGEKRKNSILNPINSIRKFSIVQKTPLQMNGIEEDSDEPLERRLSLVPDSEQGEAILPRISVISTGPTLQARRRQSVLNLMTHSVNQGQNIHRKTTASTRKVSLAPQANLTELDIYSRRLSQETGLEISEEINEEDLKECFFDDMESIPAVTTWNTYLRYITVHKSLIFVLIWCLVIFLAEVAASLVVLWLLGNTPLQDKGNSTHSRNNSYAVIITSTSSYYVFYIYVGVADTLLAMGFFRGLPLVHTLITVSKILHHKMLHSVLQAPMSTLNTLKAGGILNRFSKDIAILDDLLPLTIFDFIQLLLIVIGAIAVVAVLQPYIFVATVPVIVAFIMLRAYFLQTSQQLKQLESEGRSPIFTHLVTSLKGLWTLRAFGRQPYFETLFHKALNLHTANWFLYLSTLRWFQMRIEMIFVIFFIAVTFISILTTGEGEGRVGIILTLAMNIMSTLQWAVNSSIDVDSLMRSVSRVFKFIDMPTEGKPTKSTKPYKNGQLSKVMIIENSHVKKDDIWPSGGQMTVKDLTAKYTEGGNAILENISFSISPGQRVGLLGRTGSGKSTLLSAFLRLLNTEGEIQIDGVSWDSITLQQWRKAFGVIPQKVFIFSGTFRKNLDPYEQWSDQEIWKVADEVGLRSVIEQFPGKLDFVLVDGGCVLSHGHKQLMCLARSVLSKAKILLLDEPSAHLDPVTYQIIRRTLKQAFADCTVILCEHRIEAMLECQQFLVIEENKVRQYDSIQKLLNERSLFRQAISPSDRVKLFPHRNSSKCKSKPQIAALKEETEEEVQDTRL

In the case of `Cc1ns/c(=N\C(=N\c2ccccc2)c2ccccc2)n1-c1ccccc1` [analog-1, reference compound], in data set [1], the “CFTR corrector activity (in words)” value is reported as “no activity as a CFTR corrector; also recorded: lack of CFTR corrector activity”. The “number of autophagic vacuoles (MDC signal spots)” value in data set [2] is recorded as “significantly decreased”. In data set [3], the solubility is less than 5 µM, the “aggregation in PBS buffer by NMR” value is listed as “no”, the solubility at 50 µM is given as less than 5 µM and the solubility at 100 µM is less than 5 µM.
`Cc1ns/c(=N\C(=N\c2ccccc2)c2ccccc2)n1Cc1cccc(O)c1` [Compound 17, (E)-N-((Z)-4-(3-Hydroxybenzyl)-3-methyl-1,2,4-thiadiazol-5(4H)-ylidene)-N′-phenylbenzimidamide]: in data set [4], the “F508del-CFTR corrector activity compared with inh-2 (CFTR activity, primary screen)” value is recorded as “increased activity”. Besides, in data set [3], the solubility is less than 5 µM, the “aggregation in PBS buffer by NMR” value is “no”, the solubility at 50 µM was less than 5 µM and the solubility at 100 µM was less than 5 µM. The cell apoptosis entry with CFBE41o– cells is “markedly increased cell apoptosis”.
